Entries after “also recorded” stand apart in the source; their conditions may differ.
Columns and labels:
A2058 cells = experiment: A2058 cell migration (scratch closure); type: cell-based; conditions: 30 μM inhibitor, 48 hours
Procedure: A2058 cells were seeded in 96-well plates at a density of 50,000 cells per well in complete growth medium (DMEM+10% FBS+penicillin/streptomycin+L-glutamine). Cells were allowed to equilibrate for 24 hours at 37° C. with 5% CO2. Cells were then serum-deprived for 24 hours in DMEM+0.1% BSA+penicillin/streptomycin+L-glutamine (serum-free medium). […] The width of the injury was measured at T0, 4 hours (data not shown), 24 hours (data not shown), and 48 hours (shown above) after injury/treatment using the 10× objective of the phase-contrast microscope and the Micron USB software package. Data represent mean percent closure±SD. n=3 for each experiment. […] However, these reductions were also not statistically significant.

ATX [1] = target: T1, ATX (Homo sapiens, UniProt Q13822)
ATX [2] = target: T1, ATX; experiment: biochemical; conditions: Ki
ATX [3] = target: T1, ATX; experiment: ATX inhibition assay with FS-3 substrate; type: biochemical; design: conditioned serum-free medium (CCM) from MDA-MB-435 cells as the source of ATX; endogenous in cells; host or cells: MDA-MB-435 cells (about 10x concentrated serum-free conditioned medium)
Procedure: ATX inhibition was assayed using the substrate FS-3 (Echelon Biosciences, Inc., Salt Lake City, Utah, USA). The FS-3 assay used ˜10 times concentrated conditioned serum-free medium (CCM) from MDA-MB-435 cells as the source of ATX, while CCM comprised one-third of the total volume.
All assays were performed in 96-well plates with data read at 1 minute intervals by a Synergy2 system (BioTek, Winooski, Vt.). […] Results are shown at one hour, at which point all fluorescence and absorbance changes as a function of time were linear. All readings were normalized to vehicle control after subtraction of fluorescence in the absence of CCM. Data are shown as the mean±S.D. of at least three wells. All experiments were repeated at least twice and results are shown.

ATX [4] = target: T1, ATX; design: conditioned serum-free medium (CCM) from MDA-MB-435 cells as the source of ATX; endogenous in cells; host or cells: MDA-MB-435 cells (about 10x concentrated serum-free conditioned medium); conditions: 10 μM compound, 1 μM FS-3; earlier screen; cited from earlier work
melanoma metastasis = conditions: micromolar concentrations; cited from earlier work
ATX [5] = target: T1, ATX; design: conditioned serum-free medium (CCM) from MDA-MB-435 cells as the source of ATX; endogenous in cells; host or cells: MDA-MB-435 cells (about 10x concentrated serum-free conditioned medium); conditions: cited from earlier work

Row | mechanism of ATX inhibition (ATX [1]) | Inhibition Mechanism (ATX [1]; FS-3 substrate) | Ki (ATX [2]) [nM] | block of ATX-mediated hydrolysis of FS-3 (ATX [3]; 10 μM compound, FS-3 1 μM) | % Response at 10 μM (FS-3) (ATX [3]; 10 μM compound, FS-3 hydrolysis normalized to vehicle control (low = strong inhibition), mean ± S.D.) [%] | IC50 (ATX [3]; ATX-mediated FS-3 hydrolysis) [nM] | SMILES | ATX-stimulated cell migration (A2058 cells; ATX 100 ng/ml) | LPC+ATX-stimulated cell migration (A2058 cells; LPC 18:1 10 μM + ATX 100 ng/ml) | LPC-stimulated cell migration (A2058 cells; LPC 18:1 10 μM) | inhibition of ATX-catalyzed hydrolysis of FS-3, initial single concentration screen (ATX [4]) | inhibition of melanoma metastasis (melanoma metastasis) [%] | mechanism of inhibition (reported) (ATX [5])
1 | mixed-mode | Mixed | 1600 | completely blocked | 0.0 ± 4.0 | 1600 ± 400 | CCn1cc(C(=O)O)c(=O)c2cnc(N3CCN(C(=S)Nc4cc(Cl)cc(Cl)c4)CC3)nc21 [Compound 1] | significantly inhibited | significantly inhibited; also recorded: statistically significant inhibition | the reduction was not statistically significant | fully inhibited | – | –
2 | – | – | – | – | – | – | O=[As](O)(O)c1ccc(Cc2ccc([As](=O)(O)O)cc2)cc1 [NSC 48300] | – | – | – | – | ~100 | competitive
